The text below walks through data of patent publication US20130123271A1, “HETEROCYCLIC COMPOUNDS, THEIR PREPARATION AND THERAPEUTIC APPLICATION” (FOVEA PHARMACEUTICALS, priority 2010, published 2013).

The target of this assay is h Src (Homo sapiens, UniProt P12931). The experiment in a line: LC3000 Src assay (off-chip incubation mobility-shift kinase assay, Caliper LabChip). Conditions: ATP at KM apparent. Type of assay: biochemical. On the procedure: The screening and profiling experiments described here were performed using Caliper Life Sciences' proprietary LabChip™ technology. Caliper LC3000 and EZ Reader II instruments are widely used throughout the drug discovery process for assay development, primary screening, selectivity screening, generation of Structure-Activity Relationships (SARs) and Mechanism of Action (MOA) studies. The LabChip™ technology is particularly well suited for enzymatic ‘targets’ such as kinases, proteases, phosphatases, histone deacetylases (HDAC), phosphodiesterases (PDE), and acyl-transferases. The key benefit of the technology is the separation and direct measurement of substrates and products, which allows for higher signal-to-noise ratios and fewer false positive/negative results. This direct measurement also allows for the identification and elimination of enzymatic activities that are not associated with the kinase reaction of interest.
h Src, sequence (P12931 whole entry): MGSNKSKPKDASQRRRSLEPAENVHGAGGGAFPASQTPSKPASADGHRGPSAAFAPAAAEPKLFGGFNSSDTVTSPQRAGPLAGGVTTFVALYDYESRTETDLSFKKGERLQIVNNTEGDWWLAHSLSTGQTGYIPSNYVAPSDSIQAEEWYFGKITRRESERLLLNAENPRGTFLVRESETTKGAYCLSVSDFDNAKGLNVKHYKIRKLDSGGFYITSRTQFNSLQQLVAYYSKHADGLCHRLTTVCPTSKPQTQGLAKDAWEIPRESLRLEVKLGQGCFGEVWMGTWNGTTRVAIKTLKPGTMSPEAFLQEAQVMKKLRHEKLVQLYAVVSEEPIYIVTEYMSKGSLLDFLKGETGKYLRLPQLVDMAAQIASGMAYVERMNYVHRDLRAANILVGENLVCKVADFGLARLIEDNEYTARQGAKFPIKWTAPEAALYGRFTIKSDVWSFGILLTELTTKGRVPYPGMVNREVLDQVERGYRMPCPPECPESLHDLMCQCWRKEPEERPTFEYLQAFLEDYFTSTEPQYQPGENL
The off-chip incubation mobility-shift kinase assay uses a microfluidic chip to measure the conversion of a fluorescent peptide substrate to a phosphorylated product. The reaction mixture, from a microtiter plate well, is introduced through a capillary sipper onto the chip, where the nonphosphorylated substrate and phosphorylated product are separated by electrophoresis and detected via laser-induced fluorescence. […] The phosphorylated product migrates through the chip faster than the non-phosphorylated substrate, and signals from the two forms of the peptide appear as distinct peaks. Caliper's data analysis software (HTSWA) determines peak heights, from which the ratio of product to the peak sum P/(P+S) and percent (%) conversion is calculated. This value is used to compare compound wells to control wells present on the plate, and thereby determine the % inhibition values for the compound. The formula used to calculate % inhibition is as follows, where C100% is the average % conversion of the 100% activity wells and C0% is the average % conversion of the 0% activity wells:
(1-(%conversionofsample—C0%)/(C100%−C0%))*100
Compounds were dissolved in 100% DMSO and diluted to 25× the final desired screening concentration. Serial dilutions were performed to obtain the concentrations specified for particular studies. One μl of each concentration was transferred, in duplicate, to a 384-well Greiner microtiter plate. Generally, 12 μL of enzyme buffer containing purified kinase (various suppliers), 100 mM HEPES, pH 7.5, 1 mM DTT (Calbiochem, 2333153), 10 mM MgCl2 (Sigma, M-1028) or 10 mM MnCl2 (Sigma, M-1787) (assay specific), and 0.002% Brij-35 (Sigma, B4184) was added to each well. Compound and enzyme were allowed to pre-incubate for 15 minutes. 12 μL of peptide/ATP buffer containing 100 mM HEPES, pH 7.5, 1.5 μM fluorescein-labeled peptide (specific to kinase of interest), ATP (at KM apparent, Sigma, A9187), and 0.002% Brij-35 was then added to each well to initiate the reaction. Generally, reactions were incubated for 1-1.5 hours at room temperature to obtain adequate (15-40%) conversion of peptide to phosphorylated product in the linear range of the reaction. Reactions were terminated with the addition of 45 μL of Stop Buffer (containing 20 mM EDTA). Plates were then read on the LabChip 3000 using a 12-sipper LabChip. % conversion values and % inhibition values were obtained as described and IC50 curves of compounds were generated using Graphpad Prism Version 4 or 5.01. A nonlinear curve fit using the sigmoidal dose response—variable slope fit was used to graph IC50 curves and determine IC50 values and hillslopes.

The structures appear in SMILES notation.

On to `COc1ccc(Nc2ncc3cc(-c4cc(O)ccc4Cl)ccc3n2)cn1` [Compound 40, 4-Chloro-3-[2-(6-methoxy-pyridin-3-ylamino)-quinazolin-6-yl]-phenol], for which the IC50 was 10 nM.
With `COc1cc(Nc2nc3ccc(-c4cc(O)ccc4Cl)cn3n2)cc(OC)c1OC` [Compound 29, 4-Chloro-3-[2-(3,4,5-trimethoxy-phenylamino)-[1,2,4]triazolo[1,5-a]pyridin-6-yl]-phenol], the IC50 stood at 2 nM.
Under `Oc1ccc(Cl)c(-c2ccc3nc(Nc4ccc(OCCN5CCCC5)cn4)nn3c2)c1` [compound 8, 4-Chloro-3-{2-[5-(2-pyrrolidin-1-yl-ethoxy)-pyridin-2-ylamino]-[1,2,4]triazolo[1,5-a]pyridin-6-yl}-phenol] stands 100 nM; under `COc1cc(Nc2ncc3cc(-c4cc(O)ccc4Cl)ccc3n2)cc(OC)c1OC` [Compound 36, 4-Chloro-3-[2-(3,4,5-trimethoxy-phenylamino)-quinazolin-6-y]-phenol], 0.5 nM; under `OCc1cc(CO)cc(Nc2nc3cc(-c4cc(O)ccc4Cl)ccn3n2)c1` [Compound 34, 3-[2-(3,5-Bis-hydroxymethyl-phenylamino)-[1,2,4]triazolo[1,5-a]pyridin-7-yl]-4-chloro-phenol], 9 nM.
`Oc1ccc(Cl)c(-c2ccc3nc(Nc4ccc5cc[nH]c5c4)ncc3c2)c1` [Compound 42, 4-Chloro-3-[2-(1 H-indol-6-ylamino)-quinazolin-6-yl]-phenol]: the IC50 came out at 100 nM.
Under `Oc1ccc(Cl)c(-c2ccc3nc(Nc4ccnc(O)c4)nn3c2)c1` [Compound 19, 4-[6-(2-Chloro-5-hydroxy-phenyl)-[1,2,4]triazolo[1,5-a]pyridin-2-ylamino]-pyridin-2-ol] stands 28 nM.
In the case of `OCCn1cnc2ccc(Nc3nc4ccc(-c5cc(O)ccc5Cl)cn4n3)cc21` [Compound 30, 4-Chloro-3-{2-[3-(2-hydroxy-ethyl)-3H-benzoimidazol-5-ylamino]-[1,2,4]triazolo[1,5-a]pyridin-6-yl}-phenol], the IC50 was 7 nM.
The figure for `Oc1ccc(Cl)c(-c2ccc3nc(Nc4ccnc(OCCN5CCCC5)c4)nn3c2)c1` [Compound 33, 4-Chloro-3-{2-[2-(2-pyrrolidin-1-yl-ethoxy)-pyridin-4-ylamino]-[1,2,4]triazolo[1,5-a]pyridin-6-yl}-phenol] is 29 nM; for `COc1ccc(Nc2nc3ccc(-c4cc(O)ccc4Cl)cn3n2)cn1` [compound 7, 4-Chloro-3-[2-(6-methoxy-pyridin-3-ylamino)-[1,2,4]triazolo[1,5-a]pyridin-6-yl]-phenol] it is 80 nM; for `Oc1ccc(Cl)c(-c2ccc3nc(Nc4cccnc4)ncc3c2)c1` [Compound 17, 4-Chloro-3-[2-(pyridin-3-ylamino)-quinazolin-6-yl]-phenol] it is 2 nM.
The figure for `Oc1ccc(Cl)c(-c2ccn3nc(Nc4cccnc4)nc3c2)c1` [Compound 31, 4-Chloro-3-[2-(pyridin-3-ylamino)-[1,2,4]triazolo[1,5-a]pyridin-7-yl]-phenol] is 69 nM; for `Oc1ccc(Cl)c(-c2ccc3nc(Nc4ccc5cc[nH]c5c4)nn3c2)c1` [Compound 18, 4-Chloro-3-[2-(1H-indol-6-ylamino)-[1,2,4]triazolo[1,5-a]pyridin-6-yl]-phenol] it is 39 nM.
Take `Cc1cc(Nc2ncc3cc(-c4cc(OC(=O)c5ccccc5)ccc4Cl)ccc3n2)cc(N2CCN(CCO)CC2)c1` [Compound 49, Benzoic acid 4-chloro-3-(2-{3-[4-(2-hydroxy-ethyl)-piperazin-1-yl]-5-methyl-phenylamino}-quinazolin-6-yl)-phenyl ester]: the IC50 is 11 nM.
`OCCN1CCN(c2cc(CO)cc(Nc3ncc4cc(-c5cc(O)ccc5Cl)ccc4n3)c2)CC1` [Compound 50, 4-Chloro-3-(2-{3-[4-(2-hydroxy-ethyl)-piperazin-1-yl]-5-hydroxymethyl-phenylamino}-quinazolin-6-yl)-phenol]: the IC50 is 0.2 nM.
The figure for `COc1cc(Nc2nc3ccc(-c4cc(O)ccc4Cl)cn3n2)ccn1` [Compound 20, 4-Chloro-3-[2-(2-methoxy-pyridin-4-ylamino)-[1,2,4]triazolo[1,5-a]pyridin-6-yl]-phenol] is 6 nM; for `Oc1ccc(Cl)c(-c2ccc3nc(Nc4cncc(OCCN5CCCC5)c4)nn3c2)c1` [Compound 26, 4-Chloro-3-{2-[5-(2-pyrrolidin-1-yl-ethoxy)-pyridin-3-ylamino]-[1,2,4]triazolo[1,5-a]pyridin-6-yl}-phenol] it is 14 nM; for `Oc1ccc(Cl)c(-c2ccc3nc(Nc4cncnc4)nn3c2)c1` [compound 3, 4-Chloro-3-[2-(pyrimidin-5-ylamino)-[1,2,4]triazolo[1,5-a]pyridin-6-yl]-phenol] it is 150 nM.
The figure for `OCc1cncc(Nc2nc3ccc(-c4cc(O)ccc4Cl)cn3n2)c1` [compound 4, 4-Chloro-3-[2-(5-hydroxymethyl-pyridin-3-ylamino)-[1,2,4]triazolo[1,5-a]pyridin-6-yl]-phenol] is 39 nM; for `Oc1ccc(Cl)c(-c2ccc3nc(Nc4ccccn4)nn3c2)c1` [compound 12, 4-Chloro-3-[2-(pyridin-2-ylamino)-[1,2,4]triazolo[1,5-a]pyridin-6-yl]-phenol] it is 170 nM.
Consider `Oc1ccc(Cl)c(-c2ccc3nc(Nc4cccnc4)nn3c2)c1` [compound 2, 4-Chloro-3-[2-(pyridin-3-ylamino)-[1,2,4]triazolo[1,5-a]pyridin-6-yl]-phenol], for which the IC50 was determined as 120 nM.
The figure for `OCCN1CCN(c2cc(Nc3nc4ccc(-c5cc(O)ccc5Cl)cn4n3)ccn2)CC1` [Compound 38, 4-Chloro-3-(2-{2-[4-(2-hydroxy-ethyl)-piperazin-1-yl]-pyridin-4-ylamino}-[1,2,4]triazolo[1,5-a]pyridin-6-yl)-phenol] is 13 nM; for `O=C1CCCN1CCOc1ccc(Nc2nc3ccc(-c4cc(O)ccc4Cl)cn3n2)cn1` [Compound 44, 1-(2-{5-[6-(2-Chloro-5-hydroxy-phenyl)-[1,2,4]triazolo[1,5-a]pyridin-2-ylamino]-pyridin-2-yloxy}-ethyl)-pyrrolidin-2-one] it is 57 nM; for `COc1cc2nc(Nc3ccc(OCCN4CCCC4)cc3)nn2cc1-c1cc(O)ccc1Cl` [Compound 39, 4-Chloro-3-{7-methoxy-2-[4-(2-pyrrolidin-1-yl-ethoxy)-phenylamino]-[1,2,4]triazolo[1,5-a]pyridin-6-yl}-phenol] it is 69 nM.
On to `OCCN1CCN(c2cc(CO)cc(Nc3nc4ccc(-c5cc(O)ccc5Cl)cn4n3)c2)CC1` [Compound 47, 4-Chloro-3-(2-{3-[4-(2-hydroxy-ethyl)-piperazin-1-yl]-5-hydroxymethyl-phenylamino}-[1,2,4]triazolo[1,5-a]pyridin-6-yl)-phenol], for which the IC50 came out at 1 nM.
Under `[O-][N+]1(CCOc2ccc(Nc3nc4ccc(-c5cc(O)ccc5Cl)cn4n3)cc2)CCCC1` [Compound 41, 4-Chloro-3-(2-{4-[2-(1-oxy-pyrrolidin-1-yl)-ethoxy]-phenylamino}-[1,2,4]triazolo[1,5-a]pyridin-6-yl)-phenol] stands 55 nM.
The figure for `OCc1cncc(Nc2ncc3cc(-c4cc(O)ccc4Cl)ccc3n2)c1` [Compound 21, 4-Chloro-3-[2-(5-hydroxymethyl-pyridin-3-ylamino)-quinazolin-6-yl]-phenol] is 0.4 nM.

The IC50 is the point on the concentration scale where inhibition reaches its midpoint.
